# US5063203A, “Method of preventing or treating thrombosis using kappa-caseinoglycopeptide as active ingredient” (Centre National de la Recherche Scientifique (CNRS), priority 1989, dated 1991)
# Several values for one entry are separate records, joined by “and”; a condition that tells them apart may be missing. Equal values may be shown once. Entries after “also recorded” stand apart in the source; their conditions may differ.
# What was measured:
# [1] = system: blood-platelets; conditions: literature, fragments of cow's CGP; cited from earlier work
# [2] = system: blood-platelets; conditions: literature, fragments of cow's CGP; same concentrations as the undecapeptide; cited from earlier work
# [3] = system: human blood-platelets; assay: aggregation of human blood-platelets caused by ADP; assay type: cell-based; design: key to Aggregation with ADP, concentration which induces 50% inhibition: --: No inhibition
# Excerpt: (§1) More precisely, its activity upon the blood-platelet functions has been studied in vitro in relation to the inhibition of the aggregation of blood-platelets caused by ADP ("aggregation with ADP"), in relation to the inhibition of the attachment of fibrinogen to the blood-platelets caused by ADP ("attachment of fibrinogen with ADP"), in relation to the inhibition of the aggregation of blood-platelets caused by thrombin ("aggregation with thrombin") and in relation to the inhibition of the reaction caused by thrombin ("secretion reaction with thrombin") that is to say the release of one of the constituents of the dense granule (serotonin), evidence of blood-platelet activation.
# (§2) These three products (κ-casein, κ-paracasein and CGP) have been tested upon the aggregation of human blood-platelets by ADP and by thrombin, upon the fixing of fibrinogen in the presence of ADP, and on the secretion reaction.
# [4] = system: human blood-platelets; assay: aggregation of human blood-platelets caused by thrombin; assay type: cell-based
# Excerpt: as §1, §2
# [5] = system: human blood-platelets; assay: secretion reaction with thrombin (release of serotonin from the dense granule); assay type: cell-based
# Excerpt: as §1, §2
# [6] = system: human blood-platelets; assay: attachment of fibrinogen to the blood-platelets caused by ADP; assay type: cell-based; conditions: CGP at 250 μM
# Excerpt: as §1, §2
Substance,inhibition of blood-platelet aggregation in vitro [1],inhibition of the attachment of fibrinogen to the blood-platelets in vitro [2],"CI50, aggregation with ADP [3]","Aggregation with ADP, concentration which induces 50% inhibition ([3]; Table II)","IC50 ([4]; Table II, read-out: Aggregation with thrombin, concentration which induces 50% inhibition)","IC50 ([4]; read-out: CI50, aggregation with thrombin)","IC50 ([5]; Table II, read-out: Secretion reaction with thrombin, concentration which induces 50% inhibition)","IC50 ([5]; read-out: CI50, secretion reaction with thrombin)",inhibition of fibrinogen attachment with ADP [6]
"heptapeptide containing the residues 106→112: fragment 106→112 of cow's κ-caseinoglycopeptide, by trypsin digestion of CGP or by synthesis (MAIPPKK; UniProt P02668 127-133, looked up, fragment)",non-inhibiting,none of these peptides inhibit,,,,,,,
"tetrapeptide containing the residues 113→116: fragment 113→116 of cow's κ-caseinoglycopeptide, by trypsin digestion of CGP or by synthesis (NQDK; UniProt P02668 134-137, looked up, fragment)",inhibits only very slightly,none of these peptides inhibit,,,,,,,
κ-casein: cow's milk protein that under chymosin yields κ-paracasein and CGP; comparator,,,inactive; also recorded: inhibits neither,--,10 µM,10 µM and ~10 µM,10 µM,10 µM and ~10 µM,inhibits neither
